Data published in US20060226082A1, “Methods for substrate and modulator screening using enzyme-reactor chromatography/tandem mass spectrometry” (McMaster University, priority 2005, published 2006).
Entries after “also recorded” stand apart in the source; their conditions may differ.

Assays:
[1] = target: T1, adenosine deaminase (ADA, Type V, EC 3.5.4.4) entrapped in monolithic silica column (Bos taurus, UniProt P56658); assay: ADA enzyme reactor/MS mixture screening (primary and secondary screen); format: biochemical, bovine; details: each compound individually, 500 nM and 10 μM, 200 μM adenosine
T1 construct: Adenosine deaminase (ADA, Type V, from bovine intestine, EC 3.5.4.4); purchased Sigma-Aldrich (Oakville, Ontario, Canada) Type V (catalogue number not given); host or cells: bovine intestine (tissue-derived)
T1 sequence (P56658 1-363): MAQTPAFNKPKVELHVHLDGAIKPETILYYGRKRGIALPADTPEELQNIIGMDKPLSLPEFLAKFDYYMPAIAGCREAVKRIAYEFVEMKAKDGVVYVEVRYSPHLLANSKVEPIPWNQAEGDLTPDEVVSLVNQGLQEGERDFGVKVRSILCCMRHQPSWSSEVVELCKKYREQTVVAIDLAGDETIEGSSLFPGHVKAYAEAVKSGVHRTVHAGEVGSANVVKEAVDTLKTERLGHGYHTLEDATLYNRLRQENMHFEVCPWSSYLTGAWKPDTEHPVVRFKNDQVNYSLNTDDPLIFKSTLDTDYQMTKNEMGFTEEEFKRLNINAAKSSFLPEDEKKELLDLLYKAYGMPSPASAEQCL
Protocol: Columns were fabricated in a fashion similar to that described previously.^25 ADA was exhaustively dialyzed against a solution containing 5 mM Bis-Tris.HCl, pH 6.5, with 10% (v/v) glycerol to remove all traces of phosphate buffer and adjust the pH. 40 mL of the resultant 40 mM ADA solution was then mixed with 20 mL of a solution containing 0.5 mM Bis-Tris.HCl, pH 6.5 with 50% (v/v) glycerol. DGS based sols were prepared by sonicating DGS with water (1 g+1 mL) at 0° C. for 15 min to hydrolyze the monomer, followed by filtration through a 0.2 mm filter. 100 mL of the resulting sol was rapidly mixed with the 60 mL ADA solution prepared above, followed by the rapid addition of 40 mL of 40% (w/v) poly(ethylene glycol) in water. The sol solution was then injected into an 80 cm length of 250 mm i.d., 360 mm o.d., polyimide coated fused silica tubing that was previously cleaned using 1 M NaOH. The liquid sol must be completely mixed, injected and stationary within the capillary by the time phase separation occurs, ˜2 minutes after mixing. After gelation (˜3 min), capillaries were looped such that both ends could be submerged in 50 mM Bis-Tris.HCl pH 6.5 and secured for storage. Columns were aged for a minimum of 5 days to achieve a relatively stable internal structure. After aging, 10 cm column segments were cut from poured columns, as required. […]

[2] = target: T1, adenosine deaminase (ADA, Type V, EC 3.5.4.4) entrapped in monolithic silica column; assay: ADA enzyme reactor/MS quantitative determination of IC50, KI and Km; format: biochemical, bovine; details: for IC50: IC50 [EHNA]; for effect on ADA activity (substrate and product signals, P/S ratio): test compounds increased stepwise from 0 to 1000 nM, adenosine constant at 62.5 μM, 2 mM ammonium acetate
Description: In an embodiment of the invention, if the P/S ratio is altered in favour of the substrate, then at least one of the one or more test compounds is an inhibitor of the protein. By altering the ratio of the flow between substrate and test compound channels, one can alter the compound concentrations and, thereby, obtain full inhibition curves. IC50 values are obtained by altering the flow in the substrate and substrate+inhibitor(s) channel in a stepwise fashion, thus allowing for variation of inhibitor concentration with constant substrate concentration. […] KI values are determined by extrapolation of IC50 values obtained at different substrate concentrations to the point of zero substrate concentration as per the equation: [formula] […] Note that for the enzyme reactor column, product concentration, rather than reaction rate, is monitored. Thus, the equation is valid only under conditions where the initial rate is proportional to product concentration. In the present system, it is assumed that this holds for conversion rates of 30% or less.
To assess the enzyme-reactor chromatography/tandem MS method for inhibitor screening, monolithic silica columns containing entrapped adenosine deaminase (ADA, EC 3.5.4.4) and Factor Xa were formed according to previously described methods.^25 ADA was used as the model enzyme owing to the relevance of this protein in immune disorders,^19 and because there are currently no high-throughput screening methods for this enzyme. An Eksigent nanoLC system was used to continuously infuse liquid through the column (10 μL/min total flowrate), with one channel containing adenosine (Pump A) and another containing adenosine plus 1 μM test compound(s) (Pump B), with all species present in 2 mM ammonium acetate buffer (FIG. 1, bottom).
Columns were fabricated in a fashion similar to that described previously.^25 ADA was exhaustively dialyzed against a solution containing 5 mM Bis-Tris.HCl, pH 6.5, with 10% (v/v) glycerol to remove all traces of phosphate buffer and adjust the pH. 40 mL of the resultant 40 mM ADA solution was then mixed with 20 mL of a solution containing 0.5 mM Bis-Tris.HCl, pH 6.5 with 50% (v/v) glycerol. DGS based sols were prepared by sonicating DGS with water (1 g+1 mL) at 0° C. for 15 min to hydrolyze the monomer, followed by filtration through a 0.2 mm filter. 100 mL of the resulting sol was rapidly mixed with the 60 mL ADA solution prepared above, followed by the rapid addition of 40 mL of 40% (w/v) poly(ethylene glycol) in water. The sol solution was then injected into an 80 cm length of 250 mm i.d., 360 mm o.d., polyimide coated fused silica tubing that was previously cleaned using 1 M NaOH. The liquid sol must be completely mixed, injected and stationary within the capillary by the time phase separation occurs, ˜2 minutes after mixing. After gelation (˜3 min), capillaries were looped such that both ends could be submerged in 50 mM Bis-Tris.HCl pH 6.5 and secured for storage. Columns were aged for a minimum of 5 days to achieve a relatively stable internal structure. After aging, 10 cm column segments were cut from poured columns, as required.
A 2 channel, Eksigent nanoLC pump was used for mobile phase delivery to a MDS Sciex Q-Trap Mass Spectrometer. Note that the Eksigent pump uses direct pneumatic pumping of mobile phase at μL/min rates, with no flow splitting. An Eksigent AS-1 48 vial autosampler was fitted with a 250 μL withdrawal syringe and a 150 μL loop of 250 μm i.d. fused silica tubing. Thus, only small volumes of inhibitor solutions (˜400 μL) are required for screening, although larger volumes can be loaded directly into the Eksigent pump reservoir (1-5 mL depending on configuration) for determination of IC50 values. […] Mobile phases were run directly into the MS system, without the introduction of an organic “make-up flow”. Mass spectrometer control and data acquisition was done using Analyst v.1.4 software.

[3] = target: T2, adenosine deaminase (ADA) (Homo sapiens, UniProt P00813); details: literature value; read-out: published KI value; cited from earlier work
T2 sequence (P00813 1-363): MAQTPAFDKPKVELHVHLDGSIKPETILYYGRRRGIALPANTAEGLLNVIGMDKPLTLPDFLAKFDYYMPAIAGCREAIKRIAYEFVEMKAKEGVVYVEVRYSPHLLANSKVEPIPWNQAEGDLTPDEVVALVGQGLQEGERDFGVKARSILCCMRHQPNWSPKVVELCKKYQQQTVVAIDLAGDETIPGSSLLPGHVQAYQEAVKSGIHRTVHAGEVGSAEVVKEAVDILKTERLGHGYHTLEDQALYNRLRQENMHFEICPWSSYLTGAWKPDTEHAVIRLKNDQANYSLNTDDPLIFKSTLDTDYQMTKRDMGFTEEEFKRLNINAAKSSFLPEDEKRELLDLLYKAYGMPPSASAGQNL

Structure (SMILES)	ADA inhibition in secondary screen (individual compounds of active mixture) [1]	Ki [2] [nM]	IC50 ([2]; EHNA alone (closed circles, FIG. 8A)) [nM]	IC50 ([2]; EHNA in a mixture (open circles, FIG. 8A)) [nM]	effect on ADA activity (substrate and product signals, P/S ratio) [2]	Ki [3] [nM]	Vmax ([2]; Michaelis-Menten analysis of inosine production rate (FIG. 6b)) [pmole/min/column]
CCCCCCC(C(C)O)n1cnc2c(N)ncnc21 (stereo not drawn) [EHNA, erythro-9-(2-hydroxy-3-nonyl)adenine]	active, inhibitory compound; also recorded: inhibitor of ADA	15.7 ± 3.5	29.4	29.7	concentration-dependent decrease in product and increase in substrate signals; also recorded: concentration-dependent decrease in ADA activity	6.5	–
Nc1ncnc2c1ncn2[C@@H]1O[C@H](CO)[C@@H](O)[C@H]1O [adenosine]	–	–	–	–	–	–	734
Nc1nc2ncc(CNc3ccc(C(=O)N[C@@H](CCC(=O)O)C(=O)O)cc3)nc2c(=O)[nH]1 [folic acid]	–	–	–	–	no significant effect	–	–
